Patent publication US9873680B2 (Gilead Sciences, Inc., priority 2014, dated 2018)
Like-named read-outs stand apart in the source and are kept apart here.

Assays:
HIV-IIIb = assay: Test A: Antiviral Assay in MT4 Cells; assay type: cell-based, HIV-1; conditions: read-out: % inhibition at 0.2 μM (percent inhibition of virus-induced cell killing)
In short: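 Readout was CellTiter-Glo luminescence after 10 min room-temperature lysis, taken 5 days after plating at 37 °C. The 2000 MT-4 cells per well, mixed 1 h beforehand with HIV-IIIb (m.o.i. 0.003), went straight onto the diluted compound.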

[1] = Test B: Cytotoxicity Assay; assay type: cell-based; conditions: human, uninfected MT-4 cells, CellTiter-Glo
Description: Test B: Cytotoxicity Assay Compound cytotoxicity and the corresponding CC50 values was determined using the same protocol as described in the antiviral assay (Test A) except that uninfected cells were used.

[2] = Human immunodeficiency virus 1, MT4, 120 h, 0.2 μM drug concentration, MT-4 cells infected with HIV-IIIb, 5 days, values normalized to 100%, average over time

SMILES	inhibition at 0.2 µM (HIV-IIIb; [2])	CC50 at 5 days [1]	inhibition at 0.2 µM (HIV-IIIb; Human immunodeficiency virus 1, IIIB, MT4, 120 h)
Cn1nc(NS(C)(=O)=O)c2c(Cl)ccc(-c3ccc(C#CC4(O)CC4)nc3[C@H](Cc3cc(F)cc(F)c3)NC(=O)Cn3nc(C(F)(F)F)c4c3C(F)(F)[C@@H]3C[C@H]43)c21 [Compound 64, N—((S)-1-(3-(4-chloro-1-methyl-3-(methylsulfonamido)-1H-indazol-7-yl)-6-((1-hydroxycyclopropyl)ethynyl)pyridin-2-yl)-2-(3,5-difluorophenyl)ethyl)-2-((3bS,4aR)-5,5-difluoro-3-(trifluoromethyl)-3b,4,4a,5-tetrahydro-1H-cyclopropa[3,4]cyclopenta[1,2-c]pyrazol-1-yl)acetamide]	98%	16.1 µM	–
Cn1nc(NS(C)(=O)=O)c2c(Cl)ccc(-c3ccc(C#CC(O)C4CNC4)nc3[C@H](Cc3cc(F)cc(F)c3)NC(=O)Cn3nc(C(F)(F)F)c4c3C(F)(F)[C@@H]3C[C@H]43)c21 (stereo partly drawn) [Compound 65, N-((1S)-1-(6-(3-(azetidin-3-yl)-3-hydroxyprop-1-yn-1-yl)-3-(4-chloro-1-methyl-3-(methylsulfonamido)-1H-indazol-7-yl)pyridin-2-yl)-2-(3,5-difluorophenyl)ethyl)-2-((3bS,4aR)-5,5-difluoro-3-(trifluoromethyl)-3b,4,4a,5-tetrahydro-1H-cyclopropa[3,4]cyclopenta[1,2-c]pyrazol-1-yl)acetamide]	37%	19.3 µM	–
Cn1nc(NS(C)(=O)=O)c2c(Cl)ccc(-c3ccc(C#CC4CCCN4C(=O)CO)nc3[C@H](Cc3cc(F)cc(F)c3)NC(=O)Cn3nc(C(F)(F)F)c4c3C(F)(F)[C@@H]3C[C@H]43)c21 (stereo partly drawn) [Compound 66, N-((1S)-1-(3-(4-chloro-1-methyl-3-(methylsulfonamido)-1H-indazol-7-yl)-6-((1-(2-hydroxyacetyl)pyrrolidin-2-yl)ethynyl)pyridin-2-yl)-2-(3,5-difluorophenyl)ethyl)-2-((3bS,4aR)-5,5-difluoro-3-(trifluoromethyl)-3b,4,4a,5-tetrahydro-1H-cyclopropa[3,4]cyclopenta[1,2-c]pyrazol-1-yl)acetamide]	92%	11.6 µM	–
Cn1cnc(C#Cc2ccc(-c3ccc(Cl)c4c(NS(C)(=O)=O)nn(C)c34)c([C@H](Cc3cc(F)cc(F)c3)NC(=O)Cn3nc(C(F)(F)F)c4c3C(F)(F)[C@@H]3C[C@H]43)n2)c1 [Compound 67, N—((S)-1-(3-(4-chloro-1-methyl-3-(methylsulfonamido)-1H-indazol-7-yl)-6-((1-methyl-1H-imidazol-4-yl)ethynyl)pyridin-2-yl)-2-(3,5-difluorophenyl)ethyl)-2-((3bS,4aR)-5,5-difluoro-3-(trifluoromethyl)-3b,4,4a,5-tetrahydro-1H-cyclopropa[3,4]cyclopenta[1,2-c]pyrazol-1-yl)acetamide]	87%	> 53.2 µM	–
Cn1nc(NS(C)(=O)=O)c2c(Cl)ccc(-c3ccc(C#CC4CNCCO4)nc3[C@H](Cc3cc(F)cc(F)c3)NC(=O)Cn3nc(C(F)F)c4c3C(F)(F)[C@@H]3C[C@H]43)c21 (stereo partly drawn) [Compound 68, N-((1S)-1-(3-(4-chloro-1-methyl-3-(methylsulfonamido)-1H-indazol-7-yl)-6-(morpholin-2-ylethynyl)pyridin-2-yl)-2-(3,5-difluorophenyl)ethyl)-2-((3bS,4aR)-3-(difluoromethyl)-5,5-difluoro-3b,4,4a,5-tetrahydro-1H-cyclopropa[3,4]cyclopenta[1,2-c]pyrazol-1-yl)acetamide]	100%	7.51 µM	–
Cn1nc(NS(C)(=O)=O)c2c(Cl)ccc(-c3ccc(C#CC4(O)CCC4)nc3[C@H](Cc3cc(F)cc(F)c3)NC(=O)Cn3nc(C(F)F)c4c3C(F)(F)[C@@H]3C[C@H]43)c21 [Compound 69, N—((S)-1-(3-(4-chloro-1-methyl-3-(methylsulfonamido)-1H-indazol-7-yl)-6-((1-hydroxycyclobutyl)ethynyl)pyridin-2-yl)-2-(3,5-difluorophenyl)ethyl)-2-((3bS,4aR)-3-(difluoromethyl)-5,5-difluoro-3b,4,4a,5-tetrahydro-1H-cyclopropa[3,4]cyclopenta[1,2-c]pyrazol-1-yl)acetamide]	96%	13.6 µM	–
Cn1nc(NS(C)(=O)=O)c2c(Cl)ccc(-c3ccc(C#CC(C)(O)Cn4cncn4)nc3[C@H](Cc3cc(F)cc(F)c3)NC(=O)Cn3nc(C(F)(F)F)c4c3C(F)(F)[C@@H]3C[C@H]43)c21 (stereo partly drawn) [Compound 70B, N-((1S)-1-(3-(4-chloro-1-methyl-3-(methylsulfonamido)-1H-indazol-7-yl)-6-(3-hydroxy-3-methyl-4-(1H-1,2,4-triazol-1-yl)but-1-yn-1-yl)pyridin-2-yl)-2-(3,5-difluorophenyl)ethyl)-2-((3bS,4aR)-5,5-difluoro-3-(trifluoromethyl)-3b,4,4a,5-tetrahydro-1H-cyclopropa[3,4]cyclopenta[1,2-c]pyrazol-1-yl)acetamide]	96%	14.2 µM	–
Cn1nc(NS(C)(=O)=O)c2c(Cl)ccc(-c3ccc(-c4cnn(C5CCOCC5)c4)nc3[C@H](Cc3cc(F)cc(F)c3)NC(=O)Cn3nc(C(F)(F)F)c4c3C(F)(F)[C@@H]3C[C@H]43)c21 [Compound 71, N—((S)-1-(3-(4-chloro-1-methyl-3-(methylsulfonamido)-1H-indazol-7-yl)-6-(1-(tetrahydro-2H-pyran-4-yl)-1H-pyrazol-4-yl)pyridin-2-yl)-2-(3,5-difluorophenyl)ethyl)-2-((3bS,4aR)-5,5-difluoro-3-(trifluoromethyl)-3b,4,4a,5-tetrahydro-1H-cyclopropa[3,4]cyclopenta[1,2-c]pyrazol-1-yl)acetamide]	97%	> 53.2 µM	–
Cn1nc(NS(C)(=O)=O)c2c(Cl)ccc(-c3ccc(-c4cnn(C5COC5)c4)nc3[C@H](Cc3cc(F)cc(F)c3)NC(=O)Cn3nc(C(F)(F)F)c4c3C(F)(F)[C@@H]3C[C@H]43)c21 [Compound 72, N—((S)-1-(3-(4-chloro-1-methyl-3-(methylsulfonamido)-1H-indazol-7-yl)-6-(1-(oxetan-3-yl)-1H-pyrazol-4-yl)pyridin-2-yl)-2-(3,5-difluorophenyl)ethyl)-2-((3bS,4aR)-5,5-difluoro-3-(trifluoromethyl)-3b,4,4a,5-tetrahydro-1H-cyclopropa[3,4]cyclopenta[1,2-c]pyrazol-1-yl)acetamide]	93%	50.3 µM	–
Cn1nc(NS(C)(=O)=O)c2c(Cl)ccc(-c3ccc(C#CC4CCCNC4)nc3[C@H](Cc3cc(F)cc(F)c3)NC(=O)Cn3nc(C(F)(F)F)c4c3C(F)(F)[C@@H]3C[C@H]43)c21 (stereo partly drawn) [Compound 73, N-((1S)-1-(3-(4-chloro-1-methyl-3-(methylsulfonamido)-1H-indazol-7-yl)-6-(piperidin-3-ylethynyl)pyridin-2-yl)-2-(3,5-difluorophenyl)ethyl)-2-((3bS,4aR)-5,5-difluoro-3-(trifluoromethyl)-3b,4,4a,5-tetrahydro-1H-cyclopropa[3,4]cyclopenta[1,2-c]pyrazol-1-yl)acetamide]	–	6 µM	100%
